Data from PMC5681654, “Dual protein kinase and nucleoside kinase modulators for rationally designed polypharmacology” (Nature Communications, 2017).
“Also recorded” adds a separate entry of the source. Blank lines part the entries; values can stand above or below the compound they belong to.

Tests used:
recombinant human dCK = recombinant human dCK (Homo sapiens, UniProt P27707); assay: dCK kinetic assay (PK/LDH coupled, UTP as phosphate donor); conditions: for effect on nucleoside phosphorylation by dCK: substrates 2′dC and gemcitabine, UTP, inhibitor/protein ratio 22; for effect on dCK enzymatic phosphorylation of gemcitabine: Supplementary Fig. 8
Chain of recombinant human dCK (P27707 whole entry): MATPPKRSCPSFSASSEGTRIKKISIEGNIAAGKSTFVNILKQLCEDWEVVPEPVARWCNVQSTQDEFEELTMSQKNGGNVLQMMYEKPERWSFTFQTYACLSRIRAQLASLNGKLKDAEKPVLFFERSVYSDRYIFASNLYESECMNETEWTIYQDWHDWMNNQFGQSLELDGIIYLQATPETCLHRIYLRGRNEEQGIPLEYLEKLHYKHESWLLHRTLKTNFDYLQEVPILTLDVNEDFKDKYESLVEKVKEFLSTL
Procedure: Kinetic analyses were performed using a spectrophotometric continuous enzymatic-coupled assay using pyruvate kinase (PK) and lactate dehydrogenase (LDH). […] All measurements were performed on a BMG Labtech Pherastar FS apparatus. All assays were performed in triplicate and each experiment was performed at least twice. The data are presented as mean ± s.d. The results were plotted as kinetics and the velocity was determined for each condition as the slope of the linear range of the curve. […] K m (Michaelis−Menten constant) and V max (maximal velocity) values were determined using PRISM software (GraphPad Software Inc.) by fitting the experimental data according to the Michaelis−Menten approximation defined as Equation 1.1 V=Vmax⋅S∕Km+S

dCK-C3S-S74E = dCK-C3S-S74E (Homo sapiens, UniProt P27707, C45S/C59S/C9S/S74E); assay: Isothermal titration calorimetry (ITC)
Chain of dCK-C3S-S74E (P27707 whole entry C9S/C45S/C59S/S74E): as the sequence (P27707 whole entry) above, with C9S, C45S, C59S, S74E counted along it
Procedure: ITC was used to evaluate the binding between dCK-C3S-S74E and the selected compounds. […] Purified dCK-C3S-S74E and the compounds were diluted in the ITC buffer containing 20 mM HEPES, pH 7.5, and 200 mM NaCl. Titrations were carried out on a MicroCal ITC200 microcalorimeter (GE Healthcare) at 25 °C using 16 or 24 injections of the titrant (1−3 mM compound in the syringe) into the analyte (100 or 300 μM protein in the cell). A first small injection (0.2 μl) was included in the titration protocol in order to remove air bubbles trapped in the syringe prior titration. Because of the low solubility of several ligands, sequential titrations were employed to achieve sufficient molar ratios for reliable model fitting, and these titrations were linked together prior to data analysis using ConCat32 software (Microcal). Raw data were scaled after setting the zero to the titration saturation heat value.

[1] = tested on: HRT18 (colon) cancer cell line; assay: Cell proliferation assay (CellTiter-Blue), HRT18; type: cell-based, human
Procedure: (§1) At the end of incubation, 10 µl of CellTiter-Blue Reagent were added to each well. The absorbance was read at 590 nm. The effect of the drugs on cells was expressed as a percentage of proliferation compared to untreated cells. […] Drug synergy effects were analysed using Combenefit (Cancer Research Cambridge Institute), a software tool that enables the visualisation, analysis and quantification of drug combination effects[49]. The data from combination treatments were processed using three synergy reference models: highest single agent (HSA) model, Loewe additivity model and Bliss independence model for HRT18 and LnCAP cell lines.

[2] = tested on: LNCaP (prostate) cancer cell line; assay: Cell proliferation assay (CellTiter-Blue), LNCaP; type: cell-based, human
Procedure: as §1

[3] = target: T1, uridine-cytidine kinase 1 (UCK1) (Homo sapiens, UniProt Q9HA47); assay: UCK1 kinetic assay (PK/LDH coupled, ATP as phosphate donor); type: biochemical; conditions: masitinib/protein ratios 0, 1, 10, 100
T1 construct: made in house; host or cells: E. coli BL21 DE3
T1 sequence (Q9HA47 1-277): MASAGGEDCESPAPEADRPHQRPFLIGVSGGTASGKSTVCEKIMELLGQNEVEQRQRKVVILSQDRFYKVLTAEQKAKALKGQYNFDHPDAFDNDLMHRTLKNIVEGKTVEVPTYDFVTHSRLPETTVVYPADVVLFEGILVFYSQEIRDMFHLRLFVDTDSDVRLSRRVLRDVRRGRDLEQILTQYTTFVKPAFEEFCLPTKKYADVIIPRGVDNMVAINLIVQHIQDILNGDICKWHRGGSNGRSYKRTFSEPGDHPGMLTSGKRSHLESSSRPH
Procedure: Kinetic analyses were performed using a spectrophotometric continuous enzymatic-coupled assay using pyruvate kinase (PK) and lactate dehydrogenase (LDH). […] . […] All assays were performed in triplicate and each experiment was performed at least twice. The data are presented as mean ± s.d. The results were plotted as kinetics and the velocity was determined for each condition as the slope of the linear range of the curve. […] . K m (Michaelis−Menten constant) and V max (maximal velocity) values were determined using PRISM software (GraphPad Software Inc.) by fitting the experimental data according to the Michaelis−Menten approximation defined as Equation 1.1 V=Vmax⋅S∕Km+S

thymidine kinase (TK1) = target: T2, thymidine kinase (TK1) (Homo sapiens, UniProt P04183); assay: TK1 kinetic assay (HTRF Transcreener ADP assay); conditions: masitinib/protein ratios 1, 5, 10, 20, 40
T2 sequence (P04183 2-234 limits assumed): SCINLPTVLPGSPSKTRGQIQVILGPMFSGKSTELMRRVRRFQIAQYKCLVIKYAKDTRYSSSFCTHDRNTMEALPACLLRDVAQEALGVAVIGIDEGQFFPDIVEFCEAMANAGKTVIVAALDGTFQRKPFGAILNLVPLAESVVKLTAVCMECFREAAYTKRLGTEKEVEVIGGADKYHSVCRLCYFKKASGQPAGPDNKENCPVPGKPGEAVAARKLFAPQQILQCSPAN
Procedure: ADP and ADP-d2 compete for the binding to a monoclonal anti-ADP antibody labelled with Europium (Eu^3+) cryptate. […] The obtained signal is inversely proportional to the concentration of ADP in the sample. All measurements were performed on a BMG Labtech Pherastar FS apparatus.

[4] = tested on: A549 (lung) cancer cell line; assay: Cell proliferation assay (CellTiter-Blue), A549; type: cell-based, human; conditions: gemcitabine 0−100 µM or masitinib 0−10 µM alone, 5 days
Procedure: as §1

[5] = tested on: CHO cells (constitutive dCK); assay: Cell proliferation assay (CellTiter-Blue), CHO; type: cell-based, Chinese hamster; conditions: gemcitabine 0−1 µM, 5 days
Procedure: as §1

[6] = tested on: CHO dCK- cells (deficient dCK); assay: Cell proliferation assay (CellTiter-Blue), CHO dCK-; type: cell-based, Chinese hamster; conditions: gemcitabine 0−1 µM, 5 days
Procedure: as §1

[7] = tested on: CHO dCK Rescue cells (partially reconstituted dCK); assay: Cell proliferation assay (CellTiter-Blue), CHO dCK Rescue; type: cell-based, Chinese hamster; conditions: CHO dCK Rescue (low dCK expression); gemcitabine 0−1 µM; 5 days
Procedure: At the end of incubation, 10 µl of CellTiter-Blue Reagent were added to each well. The absorbance was read at 590 nm. The effect of the drugs on cells was expressed as a percentage of proliferation compared to untreated cells.
CHO dCK deficient cells (CHO dCK-) were plated in 96-well plates at a density of 5000 cells per well and incubated overnight. The cells were transfected with the pMSCV insert free (vector control) and pMSCV-dCK respectively, using FuGENE 6 Transfection Reagent (Promega) according to manufacturer recommendations. Two days after transfection, cells were plated in 6-well plates and selected in 1 mg ml^-1 Geniticin-G418 (Gibco) for 2 weeks. The positive clones were picked and expanded to establish cell lines. The stable transfection cell clones, named as CHO dCK Rescue, were controlled by western blot analysis for dCK expression levels.

[8] = target: biotinylated dCK-C3S-S74E (Homo sapiens, UniProt P27707, C45S/C59S/C9S/S74E); assay: Bio-layer interferometry kinetics, immobilised biotinylated dCK
Chain of biotinylated dCK-C3S-S74E (P27707 whole entry C9S/C45S/C59S/S74E): as the sequence (P27707 whole entry) above, with C9S, C45S, C59S, S74E counted along it
Procedure: BLI measurements were carried out using an Octet RED96 instrument (ForteBio). Biotinylated dCK was immobilised on SSA biosensors at a concentration of 5 μM after 1200 s. Free streptavidin sites were blocked by incubating with 10 μg ml^−1 biocytin (Sigma-Aldrich) for 100 s and 1% BSA for 1000 s. A control set of SSA biosensors were prepared in parallel by blocking the surface with biocytin instead of protein. A three-point concentration series were prepared for each compound and were measured using 60 s association and 140 s dissociation steps at 30 °C with a shake speed of 1000 r.p.m. All measurements were performed in binding buffer containing 20 mM HEPES, pH 7.5, 200 mM NaCl, 0.1% BSA and 1% DMSO. Each experiment was performed at least twice and K D, k on and k off values were determined using the global fitting procedure in the ForteBio Data Analysis Software.

SMILES: Nc1ncn([C@H]2C[C@H](O)[C@@H](CO)O2)c(=O)n1 [Decitabine, decitabine]
Kd (dCK-C3S-S74E): 31 ± 5.4 µM

SMILES: C#Cc1cccc(Nc2ncnc3cc(OCCOC)c(OCCOC)cc23)c1 [erlotinib]
effect on dCK enzymatic phosphorylation of gemcitabine (recombinant human dCK): none of the compounds showed an activation effect

SMILES: CNC(=O)c1ccccc1Sc1ccc2c(/C=C/c3ccccn3)n[nH]c2c1 [axitinib]
effect on dCK enzymatic phosphorylation of gemcitabine (recombinant human dCK): none of the compounds showed an activation effect

SMILES: Cc1ccc(NC(=O)c2ccc(CN3CCN(C)CC3)cc2)cc1Nc1nc(-c2cccnc2)cs1 [masitinib]
drug synergy with gemcitabine (Combenefit: HSA, Loewe, Bliss models) [1]: synergetic effect
drug synergy with gemcitabine (Combenefit: HSA, Loewe, Bliss models) ([2]; LnCAP): synergetic effect
modulation of UCK1 enzymatic activity [3]: didn’t produce an enzymatic modulation; also recorded: did not observe an enzymatic activation
modulation of TK1 enzymatic activity (thymidine kinase (TK1)): didn’t produce an enzymatic modulation; also recorded: did not observe an enzymatic activation

SMILES: CN[C@@H]1C[C@H]2O[C@@](C)([C@@H]1OC)n1c3ccccc3c3c4c(c5c6ccccc6n2c5c31)C(=O)NC4 [staurosporine]
effect on dCK enzymatic phosphorylation of gemcitabine (recombinant human dCK): none of the compounds showed an activation effect

The next lines start with results.

effect on nucleoside phosphorylation by dCK (recombinant human dCK): most active
SMILES: Cc1ccc(NC(=O)c2ccc(CN3CC[C@H](N(C)C)C3)c(C(F)(F)F)c2)cc1Nc1nccc(-c2cncnc2)n1 [bafetinib]

effect on nucleoside phosphorylation by dCK (recombinant human dCK): most active
SMILES: COc1cc(Nc2c(C#N)cnc3cc(OCCCN4CCN(C)CC4)c(OC)cc23)c(Cl)cc1Cl [bosutinib]

effect on nucleoside phosphorylation by dCK (recombinant human dCK): most active
SMILES: Cc1cc(Nc2cc(N3CCN(C)CC3)nc(Sc3ccc(NC(=O)C4CC4)cc3)n2)[nH]n1 [tozasertib]

Kd (dCK-C3S-S74E): 22.2 µM
BLI signal for substrate binding [8]: could not detect any signal
SMILES: Nc1ccn([C@@H]2O[C@H](CO)[C@@H](O)C2(F)F)c(=O)n1 [gemcitabine]
anti-proliferative effect, single agent ([1]; gemcitabine 0−100 µM or masitinib 0−10 µM alone, 5 days): could not induce strong anti-proliferative effects
anti-proliferative effect, single agent [4]: could not induce strong anti-proliferative effects
anti-proliferative effect, single agent ([2]; LNCaP, gemcitabine 0−100 µM or masitinib 0−10 µM alone, 5 days): could not induce strong anti-proliferative effects
sensitivity to gemcitabine [5]: strong sensitivity to gemcitabine
sensitivity to gemcitabine [6]: did not show any anti-proliferative effect
sensitivity to gemcitabine [7]: restored the capacity of CHO cells to respond to gemcitabine treatment
